According to patent US20260294946A1, “METHOD TO REDUCE FEED CONVERSION RATIO IN A FARMED ANIMAL” (Inbiose N.V., priority 2023, published 2026):

Key:
Type in all cases: in vivo
[1] = Trial in piglets: body weight, growth, feed intake and feed conversion (pre-weaning, 22 days)
Description: The in vivo experiment was carried out at the commercial pig farm “Degroote Luc” (Bissegem, Belgium).
The experimental design had two treatments: • “Ti” serves as control, i.e., a placebo (water) was drenched during the first 4 days of life, and subsequently a commercial milk replacer as a liquid and creep feed was offered until weaning, • “T2,” a […] solution of 2′FL (it is referred to Example 1) in water was drenched during the first 4 days of life, and subsequently a commercial milk replacer supplemented with 2′FL (warm water was added to 250 g of milk powder to reach 25.000 (w/v)) and creep feed supplemented with 2′FL (10% w/w 2′FL) was offered until weaning. The composition of milk replacer and creep feed are detailed in Table 4.
Within 6 hours after birth of all piglets within a litter, piglets were tagged, weighed and ranked according to live weight. This was d0 of the study. Then, the first drenching was given, i.e., the heaviest piglet in the pen receives Ti, the next piglet T2 and so forth, until 12 piglets of that litter were drenched. In the next litter, the order of treatment application was alternated. This practice was done in 16 litters, and drenching was repeated on d1, d2 and d3. At the d4, […] were allocated to 16 pens with 6 piglets each, in the nursery unit. Ti was applied in 8 pens, and T2 was offered in 8 remaining pens. Piglets were allocated to pens according to litter of origin (from each of the 16 litters; 6 vital, normal to heavy weight piglets, body weight ≥1.7 kg, were taken and half of the piglets were allocated to a pen from T1—those receiving T1 in the first 3 days of life, and others to a pen from T2—those receiving T2 in the first 3 days of life), and to body weight and sex. Piglets were offered the liquid milk replacer through a cup connected to a mixing-tubing system and had free access to milk at all times. Milk intake was accurately measured at pen level. From d14 on, in addition, piglets were offered a creep feed (solid feed in feeder pan). Piglets were weighed at d0, d4, d14 and d22 (day of weaning).
Data was collected with respect to piglet performance (body weight, average daily gain (ADG), average daily feed intake and milk replacer for periods d0-4, d4-14, d14-22, d4-22, d0-22, total creep feed intake for period d14-22 and feed conversion for all periods.
Data were analyzed using appropriate linear mixed model with treatment as fixed effect (T1 vs. T2) and litter as random effect, and body weight at d0 as co-variate if P<0.05. Piglet was used as experimental unit for growth data, whereas pen was the experimental unit for other records.

[2] = system: Prevotella copri; assay: Fecal microbiota of calves, shotgun metagenomics; conditions: T1 (W 5), versus placebo calves, score = −log 10(pvalue)*sign(coef)
Description: (§1) Stools were collected directly from recta of six calves in one selected pen upon rectal inducing at day 29 (W5) and day 57 (W9). The fecal samples (approximately 1 g) were immediately snap frozen using isopropanol-dried ice bath for 1 minute before they were transferred onto dried ice for transportation to a long-term storage at −80° C.
(§2) Total fecal DNA was extracted from 200 mg feces while total upper respiratory tract microbial DNA were extracted from 1 ml DNA shield reagent containing the nasal pharyngeal swab. ZymoBIOMICS™ DNA miniprep kit (Zymo Research) in combination with a FASTPREP® 24 device was used to extract and purify the microbial DNA as instructed by the manufacturer. Purified total DNA were eluted in 100 μl and were quickly checked for the concentration and quality using Nanodrop (Implen NANOPHOTOMETER®) before storage at −20° C.
(§3) Total DNA were submitted to Eurofins (GATC, Germany) to perform metagenomics using their INVIEW metagenome platform. Briefly, total DNA were first fragmented, then ligated with adapter for library preparation. The sequencing was done using Illumina paired end sequencing technology (2×150 bp), guaranteed for 20 million read pairs (40 million reads). Reads were quality-checked with fastqc (bioinformatics.babraham.ac. uk/projects/fastqc/) and trimmed with Trimmomatic (Bolger et al., 2014, Bioinformatics, 30(15): p. 2114-2120; usadellab.org/cms/?page=trimmomatic). Bovine reads were removed by mapping to the cow reference database Bos_taurus_UMD_3.1.1 using BMTagger (bioconda.github.io/recipes/bmtagger/README.html). Profiling of the taxonomic composition and the functional potential of microbial communities was done using Metaphlan (Beghini et al., 2021, Elife 10: e65088; /huttenhower.sph.harvard.edu/humann/).
(§4) Microbiome data was normalized in cpm (counts per million).
(§5) The treatment effect of MMOs in the microbiome data was evaluated per timepoint with Maaslin2 (Mallick et al., 2021, PLoS Computational Biology 17(11): e1009442) using AST transformation and adding compartment as fixed effect. For visualization in the tables a score was calculated equal to −log 10(pvalue)*sign(coef). Spearman correlation was used to evaluate the relation between microbiome and FCR using the cor.test function in the stats package in R.

[3] = system: Eubacterium rectale; assay: Fecal microbiota of calves, shotgun metagenomics; conditions: T1 (W 5), versus placebo calves, score = −log 10(pvalue)*sign(coef)
Description: as §1, §2, §3, §4, §5

[4] = system: Bacteroides coprophilus; assay: Fecal microbiota of calves, shotgun metagenomics; conditions: T2 (W 9), versus placebo calves, score = −log 10(pvalue)*sign(coef)
Description: as §1, §2, §3, §4, §5

[5] = system: Atopobium deltae; assay: Fecal microbiota of calves, shotgun metagenomics; conditions: T1 (W 5), versus placebo calves, score = −log 10(pvalue)*sign(coef)
Description: as §1, §2, §3, §4, §5

[6] = system: Ruminococcus bromii; assay: Fecal microbiota of calves, shotgun metagenomics; conditions: T2 (W 9), versus placebo calves, score = −log 10(pvalue)*sign(coef)
Description: as §1, §2, §3, §4, §5

[7] = system: Bacteroides pectinophilus; assay: Fecal microbiota of calves, shotgun metagenomics; conditions: T2 (W 9), versus placebo calves, score = −log 10(pvalue)*sign(coef)
Description: as §1, §2, §3, §4, §5

## 2′-fucosyllactose [2′FL]
[1]; 22 days of pre-weaning phase
  body weight, ADG, milk intake, and creep feed intake versus placebo: no significant differences
[1]; 22 days of pre-weaning phase, trend
  FCR versus placebo: there is a trend that the FCR is reduced
[1]; d 0, P=0.839 vs placebo
  Body weight: 1536 g
[1]; d 0-4, P=0.363 vs placebo
  ADG (average daily gain): 139 g/day
[1]; d 0-22, P=0.297 vs placebo
  ADG (average daily gain): 185 g/day
[1]; d 4, P=0.369 vs placebo
  Body weight: 2087 g
[1]; d 4-14, P=0.555 vs placebo
  ADFI milk (average daily feed intake): 149 g DM/d
[1]; d 4-14, P=0.835 vs placebo
  FCR (milk): 1.03 g milk DM/g
[1]; d 4-14, P=0.950 vs placebo
  ADG (average daily gain): 150 g/day
[1]; d 4-22, P=0.253 vs placebo
  ADG (average daily gain): 196 g/day
[1]; d 4-22, P=0.268 vs placebo
  FCR (milk): 1.04 g milk DM/g
[1]; d 4-22, P=0.834 vs placebo
  ADFI milk (average daily feed intake): 202 g DM/d
[1]; d 14, P=0.946 vs placebo
  Body weight: 3524 g
[1]; d 14-22, P=0.038 vs placebo
  FCR (milk + creep feed): 1.18 (g milk DM + g creep feed DM)/
[1]; d 14-22, P=0.055 vs placebo
  FCR (milk): 1.09 g milk DM/g
[1]; d 14-22, P=0.134 vs placebo
  ADG (average daily gain): 250 g/day
[1]; d 14-22, P=0.304 vs placebo
  ADFI creep feed (average daily feed intake): 23.8 g DM/d
[1]; d 14-22, P=0.885 vs placebo
  ADFI milk (average daily feed intake): 270 g DM/d
[1]; d 22, P=0.306 vs placebo
  Body weight: 5524 g
[1]; day 14 to 22, milk and creep feed (P=0.038)
  FCR versus placebo: even lower
[1]; day 14 to 22, milk intake (P=0.055)
  FCR versus placebo: lower
[2]
  Significant change in counts per million (cpm) of bacteria species (score): −1.68
[3]
  Significant change in counts per million (cpm) of bacteria species (score): 1.35
[4]
  Significant change in counts per million (cpm) of bacteria species (score): −1.56
[5]
  Significant change in counts per million (cpm) of bacteria species (score): −1.44
[6]
  Significant change in counts per million (cpm) of bacteria species (score): 1.65
[7]
  Significant change in counts per million (cpm) of bacteria species (score): 1.35
